Measurements as given in US20080057534A1, “Microbe-sensitive indicators and use of the same” (Kimberly-Clark Worldwide, Inc., priority 2006, published 2008).

How the values were obtained:
aged chicken juice = assay: Dye spots on woven cotton fabric, aged chicken juice
From the text: A transparent film covering half of a fresh chicken on a polystyrene tray (from supermarket) was stored at room temperature for three weeks. The pale yellow juices that collected in the polystyrene tray were collected using a pipette and used for tests.
A 47-mg quantity of 1-docosyl-4-(4-hydroxystyryl)-pyridinium bromide (from Aldrich Chemical) was mixed with 10 g dimethylformamide. A small amount of solids remained after shaking and settling. The orange supernatant fluid was dropped onto woven cotton fabric of basis weight (29.2 cm×20.3 cm=6.888 g) to make orange-yellow colored circles. One drop of 1N sodium hydroxide solution was added to one orange-yellow spot on the cotton fabric, changing the color from orange-yellow to a pinkish orange.
The color change was rapid on cotton.

microbe contamination = assay: Microbe-insensitivity of signal graphic colorants
[1] = test system: budgie feces suspension in tap water; assay: Merocyanine dye coated paper towel, budgerigar feces suspension; settings: coated SCOTT towel, drops of suspension
Description: Budgerigar feces was collected from a caged pet budgie, and shaken in approximately 10 ml of Atlanta city domestic tap water. A 0.5-g quantity of N-methyl merocyanine dye, synthesized as described above, was dissolved in 20 ml deionized water and coated onto a SCOTT® kitchen roll paper towel by dipping the towel into the solution, allowing the excess to drip off, and then allowing the coated toweling to dry at ambient conditions. The paper towel was stained a deep orange color by the dye. […] As a control, Atlanta city domestic tap water was dropped onto a different area of the towel and while the color was diluted somewhat by the water, the area remained orange.

[2] = test system: bacteria and other microbes in aged urine; assay: Merocyanine dye coated paper towel, aged female human urine
Description: Female human urine was collected and stored in a glass jar at room temperature for 8 days. N-methyl merocyanine dye of the structure below was synthesized as described above. A 0.5-g quantity of the dye was dissolved in 20 ml deionized water and coated onto a SCOTT® kitchen roll paper towel by dipping the towel into the solution, allowing the excess to drip off, and then allowing the coated toweling to dry at ambient conditions. The paper towel was stained a deep orange color by the dye.
As a control, the aged urine was filtered through a 0.2 micron filter to remove bacteria and other microbes.
Female human urine was collected and stored for 24 hours at 37° C. Pooled female urine may be expected to have a bacterial loading of approximately 1×10^5 CFU/ml after storage under these conditions. A 0.5-g quantity of N-methyl merocyanine dye, synthesized as described above, was dissolved in 20 ml deionized water and coated onto a SCOTT® kitchen roll paper towel by dipping the towel into the solution, allowing the excess to drip off, and then allowing the coated toweling to dry at ambient conditions. The paper towel was stained a deep orange color by the dye.

E. coli bacteria = assay: Reichardt's dye/TMB coated towel, E. coli suspension drop-wise; settings: coating of Reichardt's dye and TMB on SCOTT paper towel
From the text: Additionally, a SCOTT® paper towel having a coating of Reichardt's dye and TMB chemistries was exposed to suspension of E. coli bacteria drop-wise. The towel area that came in contact with the bacteria decolorized to a white spot in less than 10 seconds.

[3] = De-colorization by acid (model of microbial contamination) and reversal by strong base; format: physicochemical
Description: A CCI Multigloss yellow base pigment (available from Color Converting, Inc. of Hazleton, Pa.) was applied to a white SMS (spunbond/meltblown/spunbond) nonwoven material (available from Kimberly-Clark Corporation of Irving, Tex.) using a standard hand roller. The treated nonwoven was oven-dried at 100° C. for approximately five minutes. A solution of Reichardt's dye was prepared by mixing about 200 mg of Reichardt's dye (obtained from Sigma-Aldrich of St. Louis, Mo.) with approximately 5 g of octanol (obtained from Sigma-Aldrich). This solution was then applied in the shape of a “t” to the dried yellow pigment on the nonwoven material using a clean hand roller. A control material was prepared by applying the Reichardt's dye/octanol mixture in the “t” pattern to a sheet of untreated white SMS nonwoven material. The samples were again oven-dried at 100° C. for approximately five minutes. In previous studies, it has been discovered that strong acids can also cause de-colorization of the dye in a manner that is representative of microbial contamination. Thus, strong acids are sometimes used to model the reaction of a microbe for initial experiments. A drop of pH 2 Aldrich buffer was applied to both the control and test substrates in three places and allowed to react for three minutes. […] An observation was made that the yellow color became even more visible as time passed (presumably due to the complete de-colorization of all dye molecules in the area of the drop as the acid dried).
This experiment illustrated the ability of a strong base to reverse decolorization of Reichardt's dye. Several drops of Reichardt's dye (160 mg in 10 ml of acetonitrile) were pipetted onto a SCOTT® towel and allowed to dry. […] The blue/purple color of Reichardt's dye returned after the 1 N NaOH was added.

S. aureus [4] = assay: Reichardt's dye coatings from different solvents on towels, S. aureus aliquots; settings: for color change of coating: 100 μl S. aureus
Description: The behavior of Reichardt's dye coatings made using various different solvents was evaluated. Solutions of Reichardt's dye in acetonitrile, isopropanol, and xylenes were prepared and the solutions were used to coat SCOTT® kitchen rolls towels and allowed to air-dry.

[5] = test system: aged chicken juice known to have a high bacterial count; assay: Dye coating on ceramic surface with and without TWEEN 80, drop of aged chicken juice; settings: 80 mg/10 mL acetonitrile with TWEEN 80 (200 μL)
Description: A solution of Reichardt's dye (80 mg/10 mL acetonitrile) and TWEEN® 80 (200 μL) polyoxyethylene surfactant (from Fischer Scientific, Pittsburgh, Pa.) was prepared. This solution was then used to coat a ceramic surface and allowed to air dry. A second solution of Reichardt's dye (80 mg/10 mL acetonitrile) without surfactant was placed on the surface and allowed to air dry as well. After drying, a drop of aged chicken juice known to have a high bacterial count was placed on each coating area. […] Furthermore, the addition of TWEEN® surfactant allowed for easy removal of the dye from the surface.

S. aureus [6] = assay: Reichardt's dye coated self-adhesive stickers, transfer of bacteria by gloved hand; settings: 160 mg/10 mL and 80 mg/10 mL acetonitrile coatings; 10^7 CFU/mL S. aureus
Description: A sheet of paper self-adhesive stickers (Avery-Dennison) was also brush-coated with two different concentrations of Reichardt's dye solution (160 mg/10 mL acetonitrile, 80 mg/10 mL acetonitrile). The stickers were applied to the lid and latch mechanism of a Huggies® Wet Wipes box. A gloved hand was used to transfer 10^7 CFU/mL S. aureus to the surface of the stickers.

E. coli (ATCC #8739) = assay: Reichardt's dye coated paper, response to bacterial contamination; settings: paper brush-coated with 80 mg/10 mL acetonitrile; 100 μL aliquots of 10^7 to 10^4 CFU/mL
Description: (§1) This experiment illustrated the ability of a surface coating of Reichardt's dye to respond to bacterial contamination. A sheet of paper was brush-coated with a Reichardt's dye solution (80 mg/10 mL acetonitrile). To this paper was added 100 μL aliquots of 10^7, 10^6, 10^5, and 10^4CFU/mL E. coli (ATCC #8739) or S. aureus (ATCC #6538) solutions. Water was used as a negative control. The dye color was rapidly discharged when contaminated by both types of bacteria, but more rapidly for the S. aureus. It was later determined that while both bacteria solutions were indeed at 10^7 CFU/mL concentrations, the actual concentration of the S. aureus solution was 7×10^7 CFU/mL compared to 1×10^7 CFU/mL for the E. coli solution.

S. aureus (ATCC #6538) = assay: as above; settings: paper brush-coated with 80 mg/10 mL acetonitrile; 100 μL aliquots of 10^7 to 10^4 CFU/mL
Description: as §1

[7] = Reichardt's dye/TMB coated towel, dilute bleach solution; format: physicochemical; settings: mixture of Reichardt's dye and TMB on SCOTT paper towel
From the text: A mixture of Reichardt's dye and 3,3′,5,5′-tetramethylbenzidine (TMB) was coated onto a SCOTT® paper towel and allowed to air-dry.

Structure (SMILES): CCCCCCCCCCCCCCCCCCCCCC[n+]1ccc(C=Cc2ccc(O)cc2)cc1.[Br-] [1-docosyl-4-(4-hydroxystyryl)-pyridinium bromide]
- color change (aged chicken juice; orange-yellow spots on cotton fabric): color change to very pale yellow
- color change (aged chicken juice; pinkish-orange areas (dye + NaOH soln.) on cotton): color change from pinkish-orange to very pale yellow

Structure (SMILES): Cc1ccc(Nc2ccc(Nc3ccc(C)cc3S(=O)(=O)[O-])c3c2C(=O)c2ccccc2C3=O)c(S(=O)(=O)[O-])c1.[Na+].[Na+] [Acid Green 25]
- sensitivity to microbes (microbe contamination): fairly microbe-insensitive

Structure (SMILES): COc1cc(/C=C/c2cc[n+](C)cc2)ccc1[O-] [N-methyl merocyanine dye]
- color change [1]: immediate color change from deep orange to pale yellow
- color change ([2]; urine stored 24 hours at 37° C., approx. 1×10^5 CFU/ml expected): immediate color change from deep orange to pale yellow
- color change ([2]; urine stored 24 hours at 37° C., filtered through 0.2 micron filter (control)): did not cause a color change
- color change ([2]; urine stored 8 days, filtered through 0.2 micron filter (control)): did not cause a color change
- color change ([2]; urine stored at room temperature for 8 days): immediate color change from deep orange to pale yellow

Structure (SMILES): [O-]c1c(-c2ccccc2)cc(-[n+]2c(-c3ccccc3)cc(-c3ccccc3)cc2-c2ccccc2)cc1-c1ccccc1 [Reichardt's dye, 4-(2,4,6-triphenylpyridinium-1-yl)-2,6-diphenylphenolate]
- time to decolorize to a white spot (E. coli bacteria): less than 10 seconds
- color change on acid ([3]; 160 mg in 10 ml acetonitrile on SCOTT towel, acetic acid and Aldrich buffer pH 2.0): rapid de-colorization
- reversal of decolorization by base ([3]; drop of 1 N NaOH on acid-decolorized spots): rapid re-colorization
- de-colorization revealing underlying pigment ([3]; drop of pH 2 Aldrich buffer on SMS nonwoven over yellow pigment, three minutes): underlying yellow color was clearly visible
- color change of coating (S. aureus [4]; acetonitrile solution-based coating): rapid de-colorization
- decolorization in response to microbial contamination (S. aureus [4]; isopropanol as solvent, dye concentration adjusted): readily and easily observed
- color change of coating (S. aureus [4]; isopropanol solution-based coating): No visible color change
- color change of coating (S. aureus [4]; xylenes solution-based coating): No visible color change
- de-colorization faster than area without TWEEN surfactant [5]: 20 to 30 s
- color discharge of coated stickers (S. aureus [6]): rapidly de-colorized
- time of de-colorization (E. coli (ATCC #8739)): < 1 min
- time of de-colorization (S. aureus (ATCC #6538)): < 1 min
- color response to bleach [7]: de-colorizing

Structure (SMILES): Cc1cc(-c2cc(C)c(N)c(C)c2)cc(C)c1N [TMB, 3,3′,5,5′-tetramethylbenzidine]
- bleach indicator color development on bacteria (E. coli bacteria): No orange/yellow color was observed to develop
- color response to bleach [7]: turning orange/yellow color
